Test results from US20240217985A1, “CRYSTALLINE FORM OF AN MDM2-p53 INHIBITOR AND PHARMACEUTICAL COMPOSITIONS” (Boehringer Ingelheim International GmbH, priority 2022, published 2024).
Each block holds one compound with its values, some of them ahead of it.

Assays:
[1] = Aqueous solubility and BCS classification; assay type: physicochemical
[2] = Lipophilicity at physiological pH; assay type: physicochemical
[3] = tiny-TIM in vitro bioaccessibility under simulated fasted conditions; assay type: in vitro ADME
Protocol: A tiny-TIM system was used as a model for the simulation of the physiological processes occurring in human stomach and small intestine to study the in vitro bioaccessibility of the crystalline Compound A of the present invention (prepared according to the procedure described in Example 1) under simulated fasted conditions. Thereby, the impact of drug substance particle size distribution (PSD) and amorphous content on bioaccessibility was evaluated by using tablets manufactured from a range of drug substance batches with different amorphous contents and variations in PSD. The investigated drug products also cover extreme conditions such as low amorphous content and coarse PSD as well as high amorphous content and fine PSD.

[4] = Gravimetric moisture sorption; assay type: physicochemical; details: 0 to 90% relative humidity, 25.0°C
Protocol: The crystalline form of Compound A of the present invention was subjected to a gravimetric moisture sorption experiment using a DVS intrinsic moisture sorption analyzer (Surface Measurement System). The measurement was conducted in relative humidity steps of 10%. The time per step was set to a minimum of 5 minutes and a maximum of 6 hours. If an equilibrium condition with a constant mass of ±0.02% within 10 min was reached before the maximum time, the subsequent step was applied before the maximum time of 6 hours. If no equilibrium was achieved the consecutive humidity step was applied after the maximum time of 6 hours. The temperature was (25.0±0.1° C.)

[5] = Accelerated stress test, stability at 70°C and 105°C (XRPD and HPLC); assay type: physicochemical; details: for Impurity 1 / Impurity 2 / Impurity 3 / Impurity 4 / Impurity 5 / Total Imp.: closed glass container
Protocol: (§1) Crystalline materials of Compound A of the present invention were exposed to various temperature and humidity stress conditions and investigated by XRPD and HPLC in order to investigate their physical and chemical stability.
The crystalline form of Compound A of the present invention (prepared according to the procedure described in Example 1) was stored in closed glass containers at heat stress condition of 70° C. for 3 weeks. In addition, the crystalline form of Compound A of the present invention (prepared according to the procedures described in Example 1 and 3, respectively) was stored in closed glass containers at heat stress condition of 105° C. for 24 hours.
For example, the increase in total impurities of crystalline compound A obtained according to the procedure of Example 3 was below 0.5%. Table 10, provides the chemical stability data of the crystalline compound A obtained according to the procedure of Example 1.

[6] = Accelerated stress test, stability at 60°C/80% RH (XRPD and HPLC); assay type: physicochemical; details: for Impurity 1 / Impurity 2 / Impurity 3 / Impurity 4 / Impurity 5 / Total impurities: 60°C/80% RH open storage
Protocol: as §1
The crystalline form of Compound A of the present invention (prepared according to the procedure described in Example 1 and 3, respectively) was open stored under heat and humidity stress conditions of 60° C. and 80% RH for 3 days.
For example, the increase in total impurities of crystalline compound A obtained according to the procedure of Example 3 was below 0.5%. Table 9, provides the chemical stability data of the crystalline compound A obtained according to the procedure of Example 1.

[7] = Accelerated stress test, stability at 40°C/75% RH (XRPD and HPLC); assay type: physicochemical; details: Example 1 material
Protocol: as §1
The crystalline form of Compound A of the present invention (prepared according to the procedure described in Example 1) was open stored under heat and humidity stress conditions of 40° C. and 75% RH for 6 months.

[8] = Accelerated stress test, stability at 25°C/60% RH (XRPD and HPLC); assay type: physicochemical; details: Example 1 material; for Impurity 1 / Impurity 2 / Impurity 3 / Impurity 4 / Impurity 5 / Total impurities: 25°C/60% RH open storage
Protocol: as §1
The crystalline form of Compound A of the present invention (prepared according to the procedure described in Example 1) was open stored under humidity stress conditions of 25° C. and 60% RH for 6 months.

[9] = Example 1 material, 70°C, 3 weeks
[10] = Example 1 material, 105°C, 24 hours
[11] = Example 1 material, 70°C, 1 week
[12] = Example 1 material, 70°C, 2 weeks
[13] = Example 1 material, closed glass containers, 70°C, 3 weeks
[14] = Example 1 material, closed glass containers, 105°C, 24 hours
[15] = Example 3 material, closed glass containers, 105°C, 24 hours
[16] = Example 1 material, open storage 60°C/80% RH, 3 days
[17] = Example 3 material, open storage 60°C/80% RH, 3 days
[18] = initial, before 40°C/75% RH storage
[19] = open storage 40°C/75% RH, 6 months
[20] = open storage 25°C/60% RH, 6 months

aqueous solubility ([1]; across the physiological pH range): low | biopharmaceutical classification system class ([1]; class II = low solubility, high permeability): class II | lipophilicity [2]: lipophilic
SMILES: Cc1c(C(=O)O)ccc2c3n(nc12)[C@@H]1[C@H](C3)N(CC2CC2)[C@@]2(C(=O)Nc3cc(Cl)ccc32)[C@H]1c1cccc(Cl)c1F [Compound A, (2′S,3′S,3a′S,10a′S)-6-chloro-3′-(3-chloro-2-fluorophenyl)-1′-(cyclopropylmethyl)-6′-methyl-2-oxo-1,2,3′,3a′,10′,10a′-hexahydro-1′H-spiro[indole-3,2′-pyrrolo[2′,3′:4,5]pyrrolo[1,2-b]indazole]-7′-carboxylic acid]

bioaccessibility profile, crystalline form versus amorphous Compound A ([3]; tablets): comparable bioaccessibility profiles | effect of PSD and amorphous content on bioaccessibility and concentration profiles ([3]; tablets from batches of Table 15 (amorphous content 6-75%, D50 3.6-25.0 μm)): did not have a significant effect | water uptake ([4]; material obtained from ACN/H2O (Example 3)): about 3.1 % (w/w) | water uptake ([4]; material obtained from IPA/H2O (Example 1)): about 3.6 % (w/w) | physical and chemical stability under temperature stress (summary) [5, 9]: physically and chemically stable | physical and chemical stability under temperature stress (summary) [5, 10]: physically and chemically stable | Impurity 1 [5, 11]: 0.07% | Impurity 2 [5, 11]: ≤0.05% | Impurity 3 [5, 11]: 0.07% | Impurity 4 [5, 11]: 0.24% | Impurity 5 [5, 11]: 0.26% | Total Imp. [5, 11]: 0.64% | Impurity 1 [5, 12]: 0.07% | Impurity 2 [5, 12]: ≤0.05% | Impurity 3 [5, 12]: 0.06% | Impurity 4 [5, 12]: 0.23% | Impurity 5 [5, 12]: 0.25% | Total Imp. [5, 12]: 0.61% | Impurity 1 [5, 9]: 0.07% | Impurity 2 [5, 9]: ≤0.05% | Impurity 3 [5, 9]: 0.07% | Impurity 4 [5, 9]: 0.24% | Impurity 5 [5, 9]: 0.31% | Total Imp. [5, 9]: 0.69% | Impurity 1 [5, 10]: 0.07% | Impurity 2 [5, 10]: ≤0.05% | Impurity 3 [5, 10]: 0.06% | Impurity 4 [5, 10]: 0.23% | Impurity 5 [5, 10]: 0.25% | Total Imp. [5, 10]: 0.61% | Impurity 1 ([5]; Example 1 material, Start): 0.08% | Impurity 2 ([5]; Example 1 material, Start): 0.06% | Impurity 3 ([5]; Example 1 material, Start): ≤0.05% | Impurity 4 ([5]; Example 1 material, Start): 0.26% | Impurity 5 ([5]; Example 1 material, Start): 0.26% | Total Imp. ([5]; Example 1 material, Start): 0.66% | chemical stability: impurity profiles of initial samples vs stressed samples [5, 13]: remained chemically stable | physical stability: XRPD of initial samples vs stressed samples [5, 13]: No differences in reflection positions | chemical stability: impurity profiles of initial samples vs stressed samples [5, 14]: remained chemically stable | physical stability: XRPD of initial samples vs stressed samples [5, 14]: No differences in reflection positions | physical and chemical stability under temperature stress (summary) ([5]; Example 3 material, 105°C, 24 hours): physically and chemically stable | increase in total impurities [5, 15]: below 0.5% | physical stability: XRPD of initial samples vs stressed samples [5, 15]: No differences in reflection positions | Impurity 1 ([6]; Example 1 material, 3 days): 0.07% | Impurity 2 ([6]; Example 1 material, 3 days): ≤0.05% | Impurity 3 ([6]; Example 1 material, 3 days): 0.07% | Impurity 4 ([6]; Example 1 material, 3 days): 0.24% | Impurity 5 ([6]; Example 1 material, 3 days): 0.31% | Total impurities ([6]; Example 1 material, 3 days): 0.69% | Impurity 1 ([6]; Example 1 material, Start): 0.08% | Impurity 2 ([6]; Example 1 material, Start): 0.06% | Impurity 3 ([6]; Example 1 material, Start): ≤0.05% | Impurity 4 ([6]; Example 1 material, Start): 0.26% | Impurity 5 ([6]; Example 1 material, Start): 0.26% | Total impurities ([6]; Example 1 material, Start): 0.66% | stability under stress conditions (summary) ([6]; Example 1 material, 60°C/80% relative humidity, 3 days): stable | physical stability: XRPD of initial samples vs stressed samples [6, 16]: No differences in reflection positions | physical and chemical stability under stress conditions (summary) ([6]; Example 3 material, 60°C/80% relative humidity, 3 days): physically and chemically stable | increase in total impurities [6, 17]: below 0.5% | physical stability: XRPD of initial samples vs stressed samples [6, 17]: No differences in reflection positions | stability under accelerated stress conditions (summary) ([7]; 40°C/75% relative humidity, 6 months): stable | Impurity A, Initial Peak Area-% [7, 18]: 0.06% | Impurity B, Initial Peak Area-% [7, 18]: 0.06% | Impurity C, Initial Peak Area-% [7, 18]: 0.05% | Impurity D, Initial Peak Area-% [7, 18]: 0.23% | Impurity E, Initial Peak Area-% [7, 18]: 0.31% | Total impurities, Initial Peak Area-% [7, 18]: 0.71% | Impurity A, Peak Area-% at 6 months [7, 19]: Not detected | Impurity B, Peak Area-% at 6 months [7, 19]: 0.06% | Impurity C, Peak Area-% at 6 months [7, 19]: 0.06% | Impurity D, Peak Area-% at 6 months [7, 19]: 0.25% | Impurity E, Peak Area-% at 6 months [7, 19]: 0.33% | Total impurities, Peak Area-% at 6 months [7, 19]: 0.70% | physical stability: XRPD of initial sample vs stressed sample [7, 19]: No differences in reflection positions | Impurity 1 ([8]; 1 month): 0.07% | Impurity 2 ([8]; 1 month): ≤0.05% | Impurity 3 ([8]; 1 month): 0.06% | Impurity 4 ([8]; 1 month): 0.23% | Impurity 5 ([8]; 1 month): 0.25% | Total impurities ([8]; 1 month): 0.61% | Impurity 1 ([8]; 2 months): 0.07% | Impurity 2 ([8]; 2 months): ≤0.05% | Impurity 3 ([8]; 2 months): 0.06% | Impurity 4 ([8]; 2 months): 0.23% | Impurity 5 ([8]; 2 months): 0.25% | Total impurities ([8]; 2 months): 0.61% | Impurity 1 ([8]; 3 months): 0.07% | Impurity 2 ([8]; 3 months): ≤0.05% | Impurity 3 ([8]; 3 months): ≤0.05% | Impurity 4 ([8]; 3 months): 0.23% | Impurity 5 ([8]; 3 months): 0.25% | Total impurities ([8]; 3 months): 0.60% | Impurity 1 ([8]; 6 months): 0.07% | Impurity 2 ([8]; 6 months): ≤0.05% | Impurity 3 ([8]; 6 months): 0.06% | Impurity 4 ([8]; 6 months): 0.23% | Impurity 5 ([8]; 6 months): 0.27% | Total impurities ([8]; 6 months): 0.63% | Impurity 1 ([8]; Start): 0.08% | Impurity 2 ([8]; Start): 0.06% | Impurity 3 ([8]; Start): ≤0.05% | Impurity 4 ([8]; Start): 0.26% | Impurity 5 ([8]; Start): 0.26% | Total impurities ([8]; Start): 0.66% | stability under stress conditions (summary) ([8]; 25°C/60% relative humidity, 6 months): stable | physical stability: XRPD of initial sample vs stressed sample [8, 20]: No differences in reflection positions
SMILES: Cc1c(C(=O)O)ccc2c3n(nc12)[C@@H]1[C@H](C3)N(CC2CC2)[C@@]2(C(=O)Nc3cc(Cl)ccc32)[C@H]1c1cccc(Cl)c1F [crystalline form of Compound A, (2′S,3′S,3a′S,10a′S)-6-chloro-3′-(3-chloro-2-fluorophenyl)-1′-(cyclopropylmethyl)-6′-methyl-2-oxo-1,2,3′,3a′,10′,10a′-hexahydro-1′H-spiro[indole-3,2′-pyrrolo[2′,3′:4,5]pyrrolo[1,2-b]indazole]-7′-carboxylic acid]
chemical stability: impurity profiles of initial samples vs stressed samples [6, 16]: no significant increase of chemical impurities | chemical stability: impurity profile of initial sample vs stressed sample [7, 19]: no significant increase of chemical impurities | chemical stability: impurity profile of initial samples vs stressed samples [8, 20]: no significant increase of chemical impurities
